The source of these data is paper PMC8214221, “Sequence determinants in the cathelicidin LL-37 that promote inflammation via presentation of RNA to scavenger receptors” (The Journal of Biological Chemistry, 2021).

Residues, ends and D or L forms follow the SMILES beside them.

This test addresses T1, scavenger receptor SRB1 (Homo sapiens, UniProt Q8WTV0).
T1 construct: host or cells: NHEK (normal human epidermal keratinocytes)
T1 sequence (Q8WTV0 1-552): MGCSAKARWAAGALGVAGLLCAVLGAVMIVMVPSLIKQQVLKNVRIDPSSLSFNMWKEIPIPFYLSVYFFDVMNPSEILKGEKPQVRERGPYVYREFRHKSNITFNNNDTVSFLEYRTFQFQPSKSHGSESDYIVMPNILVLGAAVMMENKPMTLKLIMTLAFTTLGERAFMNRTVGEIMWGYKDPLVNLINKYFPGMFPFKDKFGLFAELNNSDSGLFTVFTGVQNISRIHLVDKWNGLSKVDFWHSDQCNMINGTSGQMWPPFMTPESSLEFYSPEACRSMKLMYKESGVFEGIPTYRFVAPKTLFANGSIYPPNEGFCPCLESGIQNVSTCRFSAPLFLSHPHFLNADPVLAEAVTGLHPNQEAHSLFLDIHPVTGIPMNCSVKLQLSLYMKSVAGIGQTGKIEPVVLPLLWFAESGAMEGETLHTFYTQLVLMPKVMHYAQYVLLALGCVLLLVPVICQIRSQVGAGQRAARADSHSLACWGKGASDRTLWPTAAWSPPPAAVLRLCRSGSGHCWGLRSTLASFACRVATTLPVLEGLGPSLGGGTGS
The test is described as follows: Proximity ligation assay (PLA) on NHEKs. The test is classed as cell-based. Particulars: peptide 2 μM 15 min, then biotinylated U1 dsRNA 2 μg/ml 60 min at 4 °C, spatial correlation <40 nm, n = 3. How it is done: Figure 4 LL-34 enables U1 dsRNA association with scavenger receptor (SR) SRB1.A and B, NHEKs with gene knockdown for SRs SCARB1, SCARB1, SCARA3, CD36, LRP1, CD163L1, CXCL16, MSR1, MARCO, and OLR1 were cotreated with U1 dsRNA (2.5 μg/ml) and LL-34 (2 μM) for 18 h. Gene expression of IFNB1 and CXCL10 was assessed with quantitative RT-PCR (n = 3). C, proximity ligation assay (PLA) for U1 dsRNA and SR SRB1 binding. NHEKs were treated with LL-34-parent, LL-34-I24A, and LL-34-L31A (2 μM) for 15 min, followed by treatment with biotinylated U1 dsRNA (2 μg/ml) for 60 min at 4 °C. The physical proximity of LL-34 and SRB1 (C), and U1 dsRNA, and SRB1 (D) was determined with fluorescence-based PLA that produces a red fluorescent signal. DAPI (blue) was used as a nuclear counterstain. The scale bar represents 50 μm. Signal counts of C and D from five visual fields were used for PLA signal quantification, as shown in E and F (n = 3). (∗p < 0.05; ∗∗p < 0.01; ∗∗∗p < 0.001; ∗∗∗∗p < 0.0001). […]
The binding of peptide to SRB1 or U1 to SRB1 was assessed by proximity ligation assay (PLA) (Fig. 4, C–E).
PLA was performed as described previously ([30]). […] PLA signals were captured on Olympus BX41 microscope (widefield) with 40× objective and counted by Duolink ImageTool software, version 1.0 (Sigma–Aldrich). Five fields were captured per treatment for quantification of PLA signals with ImageTool software. […]

As for `CC[C@H](C)[C@H](NC(=O)[C@H](CCCCN)NC(=O)[C@H](CCC(=O)O)NC(=O)[C@H](CCCCN)NC(=O)[C@H](CO)NC(=O)[C@H](CCCCN)NC(=O)[C@H](CCCNC(=N)N)NC(=O)[C@H](Cc1ccccc1)NC(=O)[C@H](Cc1ccccc1)NC(=O)[C@H](CC(=O)O)NC(=O)CNC(=O)[C@H](CC(C)C)NC(=O)[C@@H](N)CC(C)C)C(=O)NCC(=O)N[C@@H](CCCCN)C(=O)N[C@@H](CCC(=O)O)C(=O)N[C@@H](Cc1ccccc1)C(=O)N[C@@H](CCCCN)C(=O)N[C@@H](CCCNC(=N)N)C(=O)N[C@H](C(=O)N[C@H](C(=O)N[C@@H](CCC(N)=O)C(=O)N[C@@H](CCCNC(=N)N)C(=O)N[C@H](C(=O)N[C@@H](CCCCN)C(=O)N[C@@H](CC(=O)O)C(=O)N[C@@H](Cc1ccccc1)C(=O)N[C@@H](CC(C)C)C(=O)N[C@@H](CCCNC(=N)N)C(=O)N[C@@H](CC(N)=O)C(=O)N[C@@H](C)C(=O)N[C@H](C(=O)N1CCC[C@H]1C(=O)N[C@@H](CCCNC(=N)N)C(=O)O)C(C)C)[C@@H](C)CC)C(C)C)[C@@H](C)CC` [LL-34—L31A] (H-LLGDFFRKSKEKIGKEFKRIVQRIKDFLRNAVPR-OH), the “Localization of peptide with SRB1 (PLA)” value is reported as “did not achieve close localization”. With `CC[C@H](C)[C@H](NC(=O)[C@H](CCCCN)NC(=O)[C@H](CCC(=O)O)NC(=O)[C@H](CCCCN)NC(=O)[C@H](CO)NC(=O)[C@H](CCCCN)NC(=O)[C@H](CCCNC(=N)N)NC(=O)[C@H](Cc1ccccc1)NC(=O)[C@H](Cc1ccccc1)NC(=O)[C@H](CC(=O)O)NC(=O)CNC(=O)[C@H](CC(C)C)NC(=O)[C@@H](N)CC(C)C)C(=O)NCC(=O)N[C@@H](CCCCN)C(=O)N[C@@H](CCC(=O)O)C(=O)N[C@@H](Cc1ccccc1)C(=O)N[C@@H](CCCCN)C(=O)N[C@@H](CCCNC(=N)N)C(=O)N[C@H](C(=O)N[C@H](C(=O)N[C@@H](CCC(N)=O)C(=O)N[C@@H](CCCNC(=N)N)C(=O)N[C@@H](C)C(=O)N[C@@H](CCCCN)C(=O)N[C@@H](CC(=O)O)C(=O)N[C@@H](Cc1ccccc1)C(=O)N[C@@H](CC(C)C)C(=O)N[C@@H](CCCNC(=N)N)C(=O)N[C@@H](CC(N)=O)C(=O)N[C@@H](CC(C)C)C(=O)N[C@H](C(=O)N1CCC[C@H]1C(=O)N[C@@H](CCCNC(=N)N)C(=O)O)C(C)C)C(C)C)[C@@H](C)CC` [LL-34—I24A] (H-LLGDFFRKSKEKIGKEFKRIVQRAKDFLRNLVPR-OH) the entry was “did not achieve close localization”.
